For orientation: Ki means the equilibrium dissociation constant of an inhibitor or competing ligand from its target. Read a high Ki as weaker binding.

For the experiment, the system named is Escherichia coli. The experiment can be described thus: Tested for inhibition of puromycin reaction and reported as equilibrium constant derived from primary and secondary kinetic plots for the inhibition of peptide bond formation. In kind it is functional.
Regarding `NC(Cc1ccccc1)C(=O)NCC(=O)NC(CO)C(O)c1ccc([N+](=O)[O-])cc1` (stereo unspecified), the inhibition constant (Ki) was determined as 1500 nM.
The result for `NC(Cc1ccccc1)C(=O)NC(CO)C(O)c1ccc([N+](=O)[O-])cc1` (stereo unspecified) reads 18000 nM; that for `NCC(=O)NC(CO)C(O)c1ccc([N+](=O)[O-])cc1` (stereo unspecified), 5500 nM.
The result for `O=C(N[C@H](CO)[C@H](O)c1ccc([N+](=O)[O-])cc1)C(Cl)Cl` [CHLORAMPHENICOL] reads 700 nM.
As for `NS(=O)(=O)c1ccc([C@@H](O)[C@@H](CO)NC(=O)C(Cl)Cl)cc1` [TEVENEL], the figure is 1700 nM; as for `CS(=O)(=O)c1ccc([C@@H](O)[C@@H](CO)NC(=O)C(Cl)Cl)cc1` [THIAMPHENICOL], 400 nM.

For the origin of these results see ChEMBL document CHEMBL1126895, “Aminoacyl analogs of chloramphenicol: examination of the kinetics of inhibition of peptide bond formation” (J Med Chem, 1993).
